Experimental data: ChEMBL document CHEMBL3763138, “Synthesis and bioactivity of novel triazole incorporated benzothiazinone derivatives as antitubercular and antioxidant agent” (Bioorg Med Chem Lett, 2016)
Values after ≈ are worked out from the molar mass of the structure shown.

Columns and labels:
[1] = tested on: Mycobacterium tuberculosis; assay: Antitubercular activity against Mycobacterium tuberculosis H37Ra ATCC 25177 at 10 ug/ml by XTT Reduction Menadione Assay; assay type: functional
HeLa [2] = assay: Antiproliferative activity against human HeLa cells at 3 ug/ml after 72 hrs by MTT assay; assay type: cell-based
A549 [3] = assay: Antiproliferative activity against human A549 cells at 30 ug/ml after 48 hrs by MTT assay; assay type: cell-based; conditions: a549, 48 h
[4] = tested on: Mycobacterium tuberculosis; assay: Antitubercular activity against Mycobacterium tuberculosis H37Ra ATCC 25177 at 3 ug/ml by XTT Reduction Menadione Assay; assay type: functional
HeLa [5] = assay: Antiproliferative activity against human HeLa cells at 30 ug/ml after 72 hrs by MTT assay; assay type: cell-based
A-431 [6] = assay: Antiproliferative activity against human A431 cells at 3 ug/ml after 48 hrs by MTT assay; assay type: cell-based; conditions: a-431, 48 h
[7] = tested on: Mycobacterium tuberculosis; assay: Antitubercular activity against Mycobacterium tuberculosis H37Ra ATCC 25177 at 30 ug/ml by XTT Reduction Menadione Assay; assay type: functional
[8] = Cytotoxicity against human A431 cells assessed as growth inhibition after 48 hrs by MTT assay; assay type: cell-based, A-431
A-431 [9] = assay: Antiproliferative activity against human A431 cells at 30 ug/ml after 48 hrs by MTT assay; assay type: cell-based; conditions: a-431, 48 h
[10] = (§1) Cytotoxicity against human HeLa cells assessed as growth inhibition after 72 hrs by MTT assay; assay type: cell-based; conditions: HeLa cells
HeLa [11] = assay: as §1; assay type: cell-based; conditions: hela, 72 h
[12] = tested on: Mycobacterium tuberculosis; assay: Antitubercular activity against Mycobacterium tuberculosis H37Ra ATCC 25177 by XTT Reduction Menadione Assay; assay type: functional, organism-based
A549 [13] = assay: Antiproliferative activity against human A549 cells at 10 ug/ml after 48 hrs by MTT assay; assay type: cell-based; conditions: a549, 48 h
[14] = Antioxidant activity assessed as DPPH radical scavenging activity by spectrophotometric assay; assay type: physicochemical
A549 [15] = assay: Antiproliferative activity against human A549 cells at 3 ug/ml after 48 hrs by MTT assay; assay type: cell-based; conditions: a549, 48 h
HeLa [16] = assay: Antiproliferative activity against human HeLa cells at 10 ug/ml after 72 hrs by MTT assay; assay type: cell-based
[17] = (§2) Cytotoxicity against human A549 cells assessed as growth inhibition after 48 hrs by MTT assay; assay type: cell-based; conditions: A549 cells
A549 [18] = assay: as §2; assay type: cell-based; conditions: a549, 48 h
A-431 [19] = assay: Antiproliferative activity against human A431 cells at 10 ug/ml after 48 hrs by MTT assay; assay type: cell-based; conditions: a-431, 48 h
[20] = Selectivity index, ratio of GI50 for human HeLa cells to MIC for Mycobacterium tuberculosis H37Ra ATCC 25177; assay type: toxicity, cell-based; conditions: pooled result: one value given for 3 cell lines, strains, targets or settings, read-out: Selectivity Index
[21] = Selectivity index, ratio of GI50 for human HeLa cells to MIC for Mycobacterium bovis BCG ATCC 35743; assay type: toxicity, cell-based; conditions: pooled result: one value given for 3 cell lines, strains, targets or settings, read-out: Selectivity Index

SMILES | inhibition at 10 µg/mL [1] [%] | Activity (HeLa [2]) [%] | Activity (A549 [3]) [%] | inhibition at 3 µg/mL [4] [%] | Activity (HeLa [5]) [%] | Activity (A-431 [6]) [%] | inhibition at 30 µg/mL [7] [%] | GI50 at 48 h [8] [µg/mL] | Activity (A-431 [9]) [%] | GI50 at 72 h [10] [µg/mL] | GI50 (HeLa [11]) [µg/mL] | IC50 [12] [µg/mL] | MIC [12] [µg/mL] | Activity (A549 [13]) [%] | IC50 [14] [µg/mL] | Activity (A549 [15]) [%] | Activity (HeLa [16]) [%] | GI50 at 48 h [17] [µg/mL] | MIC (A549 [18]) [µg/mL] | Activity (A-431 [19]) [%] | further results
O=C1CSc2ccccc2N1Cc1cn(-c2cccc([N+](=O)[O-])c2)nn1 | 8.7 | 11.9 | 22.02 | 25.7 | 37.5 | 17.2 | 1.2 | > 30 | 29.7 | > 30 | > 30 | > 30 | > 30 | 0.19 | 47.11 (≈ 128 µM) | 12.32 | 13.3 | > 30 | > 30 | 25.4 | –
O=C1CSc2ccccc2N1Cc1cn(Cc2ccc([N+](=O)[O-])cc2)nn1 | 52.9 | 36.5 | 8.43 | 9.8 | 55.5 | 10.8 | 70.6 | > 30 | 44.7 | > 30 | > 30 | 9.2 (≈ 24.1 µM) | > 30 | 17.56 | 27.4 (≈ 71.8 µM) | 0 | 53.2 | > 30 | > 30 | 12.9 | selectivity ratio [20]: 1; selectivity ratio [21]: 1.02
O=C1CSc2ccccc2N1Cc1cn(Cc2ccc(F)cc2)nn1 | 77.5 | 45.1 | 30.9 | 73.8 | 51.3 | 17.3 | 91.3 | > 30 | 44.5 | 28.6 (≈ 80.8 µM) | > 30 | 1.24 (≈ 3.5 µM) | 29.2 (≈ 82.5 µM) | 4.1 | 14.15 (≈ 39.9 µM) | 12.32 | 46.3 | > 30 | > 30 | 31.1 | selectivity ratio [20]: 1.02; selectivity ratio [21]: 1.09
O=C1CSc2ccccc2N1Cc1cn(-c2ccc([N+](=O)[O-])cc2)nn1 | 0.3 | 13.3 | 38.71 | 24.2 | 35.8 | 0 | 28.5 | > 30 | 0 | > 30 | > 30 | > 30 | > 30 | 24.73 | 44.29 (≈ 121 µM) | 33.22 | -0.9 | > 30 | > 30 | 0 | –
O=C1CSc2ccccc2N1Cc1cn(Cc2ccc(Br)cc2)nn1 | 38.4 | 40.4 | 44.78 | 58 | 41.3 | 8.6 | 49.8 | > 30 | 35.5 | > 30 | > 30 | > 30 | > 30 | -1.37 | 14.14 (≈ 34 µM) | -5.96 | 32.9 | > 30 | > 30 | 4 | –
O=C1CSc2ccccc2N1Cc1cn(Cc2ccccc2)nn1 | 59.3 | 0 | 25.91 | -15.4 | 39.6 | 0 | 82.2 | > 30 | -10.8 | > 30 | > 30 | 9.11 (≈ 27.1 µM) | > 30 | -9.82 | 36.26 (≈ 108 µM) | -7.85 | 8.8 | > 30 | > 30 | -37.2 | –
O=C1CSc2ccccc2N1Cc1cn(Cc2cccc(Cl)c2)nn1 | 66.6 | 52.3 | 19.04 | 8.6 | 45.7 | -6.3 | 94.2 | > 30 | 4.4 | > 30 | > 30 | 8.03 (≈ 21.7 µM) | 27.3 (≈ 73.7 µM) | 3.31 | 45.63 (≈ 123 µM) | 6.38 | 43.4 | > 30 | > 30 | -13.7 | selectivity ratio [20]: 1.1; selectivity ratio [21]: 1.05
NNC(=O)c1ccncc1 [ISONIAZID] | – | – | – | – | – | – | – | – | – | – | – | 0.0025 (≈ 0.0182 µM) | 0.075 (≈ 0.547 µM) | – | – | – | – | – | – | – | selectivity ratio [20]: 1330; selectivity ratio [21]: 2220
CO[C@H]1/C=C/O[C@@]2(C)Oc3c(C)c(O)c4c(O)c(c(/C=N/N5CCN(C)CC5)c(O)c4c3C2=O)NC(=O)/C(C)=C\C=C\[C@H](C)[C@H](O)[C@@H](C)[C@@H](O)[C@@H](C)[C@H](OC(C)=O)[C@@H]1C [RIFAMPIN] | – | – | – | – | – | – | – | – | – | – | – | – | 0.043 (≈ 0.0523 µM) | – | – | – | – | – | – | – | selectivity ratio [20]: 2330; selectivity ratio [21]: 2440
